Assay results taken from the supplement of paper PMC8882468.
Where “and” joins values, the source holds several entries; their conditions need not be identical. Equal entries are not always repeated.

How the values were obtained:
Test in all cases: CTG-3D luminescence at 96 h relative to day-0 seeding control (ratio to day 0); higher = more growth / less cytotoxicity
HCI-003.E2 = system: HCI-003.E2 (organoid from an ER-positive breast cancer xenograft)
Method: (§1)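 PDxO 3D drug screen (set 2), 8-point dose, 96 h; CTG-3D luminescence normalised to day-0 seeding control (mean of 4 wells each).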

HCI-008 = system: HCI-008 (organoid from a HER2-enriched breast cancer xenograft)
Method: as §1

HCI-015 = system: HCI-015 (organoid from a triple-negative breast cancer xenograft)
Method: as §1

HCI-017.E2 = system: HCI-017.E2 (organoid from an ER-positive breast cancer xenograft)
Method: as §1

HCI-023 = system: HCI-023 (organoid from a triple-negative breast cancer xenograft)
Method: as §1

HCI-025 = system: HCI-025 (organoid from a breast cancer xenograft)
Method: as §1

MDA-MB-231 = system: MDA-MB-231
Method: as §1

CC/C(=C(\c1ccc(O)cc1)c1ccc(OCCN(C)C)cc1)c1ccccc1 [4-hydroxytamoxifen]
CTG-3D luminescence at 96 h
Details | 12.5 pM | 0.00025 µM | 0.005 µM | 0.1 µM | 1 µM | 10 µM | 100 µM | 625 fM
HCI-003.E2 | 2.27 | 2.32 | 2.33 | 2.5 | 1.94 | 1.18 | 0.0128 | 2.7
HCI-017.E2 | 2.22 | 2.39 | 2.07 | 2.2 | 1.83 | 1.95 | 0.0156 | 2.35
MDA-MB-231 | 5.74 and 4.89 | 5.63 and 4.98 | 5.56 and 5.21 | 5.42 and 5.04 | 5.45 and 5.21 | 4.78 and 4.53 | 0.0254 and 0.0304 | 5.5 and 5.05

CTG-3D luminescence at 96 h
Details | 12.5 pM | 0.00025 µM | 0.005 µM | 0.1 µM | 1 µM | 10 µM | 100 µM | 625 fM
HCI-008, days in culture: 325 | 1.16 | 3.13 | 1.6 | 3.49 | 3.48 | 2.12 | 0.0259 | 1.52
HCI-008, days in culture: 340 | 1.38 | 1.51 | 1.18 | 1.09 | 1.46 | – | 0.00621 | 1.32
HCI-008, days in culture: 354 | 1.2 | 1.03 | 2.12 | 1.34 | 1.26 | 1.3 | 0.00452 | 0.999
HCI-008, days in culture: 382 | 1.86 | 1.74 | 1.28 | 1.63 | 0.792 | 1.56 | 0.0061 | 1.74
HCI-015, days in culture: 333 | 1.04 | 1.94 | 1.26 | 1.29 | 1.39 | 0.469 | 0.0144 | 2.19
HCI-015, days in culture: 355 | 3.76 | 3.54 | 1.5 | 2.75 | 0.935 | 1.57 | 0.00605 | 1.84
HCI-015, days in culture: 369 | 2.01 | 1.59 | 2.11 | 1.32 | 1.19 | 0.943 | 0.00584 | 1.66
HCI-017.E2, days in culture: 85 | 2.08 | 1.78 | 1.81 | 2.09 | 1.49 | 1.08 | 0.0372 | 2.06
HCI-023, days in culture: 223 | 2.56 | 1.54 | 1.73 | 1.73 | 1.16 | 1.64 | 0.0104 | 2.1
HCI-023, days in culture: 238 | 1.29 | 1.34 | 1.35 | 1.29 | 1.4 | 1.46 | 0.00895 | 1.43
HCI-023, days in culture: 252 | 2.34 | 1.72 | 1.66 | 1.88 | 1.73 | 1.63 | 0.00241 | 1.66
HCI-025, days in culture: 175 | 1.51 | 1.63 | 1.71 | 2.13 | 2.44 | 1.28 | 0.0136 | 1.6
HCI-025, days in culture: 189 | 2.13 | 1.92 | 1.2 | 1.78 | 1.33 | 0.709 | 0.00308 | 2.68
HCI-025, days in culture: 212 | 1.57 | 0.956 | 1.22 | 1.48 | 0.341 | 1.41 | 0.0176 | 1.14
HCI-025, days in culture: 224 | 2.08 | 1.8 | 1.69 | 1.65 | 2.16 | 0.525 | 0.00432 | 1.85
